≈ marks a conversion by molar mass, not a printed value. Read-outs that look alike come from different tables or passages of the source.
Assays:
[1] = tested on: A. calcoaceticus No. 4; assay: in vitro antibacterial activity, agar plate dilution method; type: cell-based; conditions: Acinetobacter calcoaceticus
How it was run: (§1)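 Minimum inhibitory concentrations, expressed as μg/ml, come from agar dilution plates of Mueller Hinton medium that carry the antibiotic at various concentrations. A loopful of overnight broth culture is applied to each plate, and the plates are read after 16 hours at 37° C.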

[2] = tested on: E. cloacae 963; assay: as above; type: cell-based; conditions: Enterobacter cloacae, 963, 16 h
How it was run: as §1

[3] = tested on: E. cloacae Nek 39*; assay: as above; type: cell-based; conditions: Enterobacter cloacae
How it was run: as §1

[4] = tested on: E. coli CSH(RE45)*; assay: as above; type: cell-based; conditions: Escherichia coli; 10^6 CFU/ml; β-Lactamase-producing strain; 37° C., 16 hours; read-out: MIC
How it was run: as §1

[5] = tested on: E. coli CSH2(RK1)*; assay: as above; type: cell-based; conditions: Escherichia coli, 16 h
How it was run: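 Agar dilution on Mueller Hinton agar with various compound concentrations; overnight broth inoculum, 37° C., 16 h; MIC in μg/ml.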

[6] = tested on: E. coli GN5482*; assay: as above; type: cell-based; conditions: Escherichia coli
How it was run: as §1

[7] = tested on: E. coli NIHJ JC2; assay: as above; type: cell-based; conditions: Escherichia coli, NIHJJC2; 10^6 CFU/ml; Mueller Hinton agar, 37° C., 16 hours; read-out: MIC
How it was run: as §1

[8] = tested on: K. oxytoca GN10650*; assay: as above; type: cell-based; conditions: Klebsiella oxytoca, GN10650, 16 h
How it was run: as §1

[9] = tested on: K. pneumoniae No. 42*; assay: as above; type: cell-based; conditions: Klebsiella pneumoniae
How it was run: as §1

[10] = tested on: K. pneumoniae PC1-602; assay: as above; type: cell-based; conditions: Klebsiella pneumoniae
How it was run: as §1

[11] = tested on: M. morganii GN5407*; assay: as above; type: cell-based; conditions: Morganella morganii, GN5407, 16 h
How it was run: as §1

[12] = tested on: P. vulgaris HX-19; assay: as above; type: cell-based; conditions: Proteus vulgaris
How it was run: as §1

[13] = tested on: P. vulgaris No. 33*; assay: as above; type: cell-based; conditions: Proteus vulgaris
How it was run: as §1

[14] = tested on: Ps. aeruginosa AK 109; assay: as above; type: cell-based; conditions: Pseudomonas aeruginosa, AK109; 10^6 CFU/ml; Mueller Hinton agar, 37° C., 16 hours; read-out: MIC
How it was run: as §1

[15] = tested on: Ps. aeruginosa AKR17; assay: as above; type: cell-based; conditions: Pseudomonas aeruginosa
How it was run: as §1

[16] = tested on: Ps. aeruginosa IFO3445; assay: as above; type: cell-based; conditions: Pseudomonas aeruginosa
How it was run: as §1

[17] = tested on: Ps. cepacia 23; assay: as above; type: cell-based
How it was run: as §1

[18] = tested on: S. aureus 209P NIHJ-JC1; assay: as above; type: cell-based; conditions: Staphylococcus aureus
How it was run: as §1

[19] = tested on: S. marcescens IAM 1184; assay: as above; type: cell-based; conditions: Serratia marcescens, IAM1184, 16 h
How it was run: as §1

[20] = tested on: S. marcescens No. 16-2*; assay: as above; type: cell-based; conditions: Serratia marcescens; 10^6 CFU/ml; β-Lactamase-producing strain; 37° C., 16 hours; read-out: MIC
How it was run: as §1

[21] = concentration in blood after subcutaneous administration to mice (paper disk method, Morganella morganii IFO 3843); type: in vivo, mice (ddY, male); conditions: mouse, sc, 20 mg/kg subcutaneous
Experimental: As a representative example, the compound of Example 15 was administered to mice by means of subcutaneous administration, and the concentration in the blood was measured. […] The test compound was dissolved in a physiological sodium chloride solution to obtain a formulation having a concentration of 2 mg/ml. […] Now, Ceftazidime was used as a comparative compound. Further, the antibacterial activities of the sample diluted by plasma to have an appropriate concentration were measured by the paper disk method using Morganella morganii IFO 3843 as the test bacterium.

[22] = 10^6 CFU/ml, β-Lactamase-producing strain, 37° C., 16 hours, read-out: MIC
[23] = Burkholderia cepacia, 23, 10^6 CFU/ml, Mueller Hinton agar, 37° C., 16 hours, read-out: MIC
[24] = 10^6 CFU/ml, Mueller Hinton agar, 37° C., 16 hours, read-out: MIC
[25] = NO.4, 10^6 CFU/ml, Mueller Hinton agar, 37° C., 16 hours, read-out: MIC
[26] = GN5482, 10^6 CFU/ml, β-Lactamase-producing strain, 37° C., 16 hours, read-out: MIC
[27] = AKR17, 10^6 CFU/ml, Mueller Hinton agar, 37° C., 16 hours, read-out: MIC

C=C(O/N=C(\C(=O)N[C@@H]1C(=O)N2C(C(=O)O)=C(CSc3nc(C(=O)O)c(-c4ccc(O)c(O)c4)s3)CS[C@H]12)c1csc(N)n1)C(=O)O [Example 15, trisodium 78-[2-(2-aminothiazol-4-yl)-2-(1-carboxylato-1-vinyloxyimino)acetamido]-3-[4-carboxylato-5-(3,4-dihydroxyphenyl)thiazol-2-yl]thiomethyl-3-cephem-4-carboxylate (syn-isomer)]
MIC ([1]; NO.4, 16 h): 0.39 µg/mL
MIC [2]: 0.05 µg/mL
MIC ([3]; 16 h): 0.05 µg/mL
MIC [4]: 0.05 µg/mL
MIC [5]: 0.0125 µg/mL
MIC ([6]; GN5482, 16 h): 0.39 µg/mL
MIC [7]: 0.39 µg/mL
MIC [8]: 0.1 µg/mL
MIC ([9]; 16 h): 0.1 µg/mL
MIC ([10]; PC1602, 10^6 CFU/ml, Mueller Hinton agar, 37° C., 16 hours, read-out: MIC): < 0.006 µg/mL
MIC [11]: 0.025 µg/mL
MIC ([12]; HX19, 16 h): 0.0125 µg/mL
MIC [13, 22]: < 0.006 µg/mL
MIC [14]: 0.78 µg/mL
MIC ([15]; AKR17, 16 h): 1.56 µg/mL
MIC ([16]; IFO3445, 16 h): 1.56 µg/mL
MIC [17, 23]: < 0.006 µg/mL
MIC [18, 24]: 25 µg/mL
MIC [19]: 0.05 µg/mL
MIC [20]: 0.78 µg/mL
concentration at 0.125 h ([21]; 7.5 min): 33800 ng/mL
concentration at 0.25 h ([21]; 15 min): 45000 ng/mL
concentration at 0.5 h ([21]; 30 min): 44300 ng/mL
concentration at 1 h ([21]; 60 min): 21900 ng/mL
concentration at 2 h ([21]; 120 min): 7100 ng/mL
concentration at 4 h ([21]; 240 min): 7200 ng/mL

C=C(O/N=C(\C(=O)N[C@@H]1C(=O)N2C(C(=O)[O-])=C(C[n+]3cccc(C(=O)O)c3)CS[C@H]12)c1csc(N)n1)C(=O)O [Example 3, 7β-[2-(2-aminothiazol-4-yl)-2-(1-carboxy-1-vinyloxyimino)acetamido]-3-(3-carboxy-1-pyridinio)methyl-3-cephem-4-carboxylate (syn-isomer)]
MIC [1, 25]: 25 µg/mL (≈ 43.5 µM)
MIC [2]: 0.1 µg/mL (≈ 0.174 µM)
MIC [3, 22]: 3.12 µg/mL (≈ 5.43 µM)
MIC [4]: 0.05 µg/mL (≈ 0.087 µM)
MIC [5]: 0.05 µg/mL (≈ 0.087 µM)
MIC [6, 26]: 3.12 µg/mL (≈ 5.43 µM)
MIC [7]: 0.2 µg/mL (≈ 0.348 µM)
MIC [8]: 0.2 µg/mL (≈ 0.348 µM)
MIC ([9]; 16 h): 0.39 µg/mL (≈ 0.679 µM)
MIC ([10]; PC1602, 16 h): 0.025 µg/mL (≈ 0.0435 µM)
MIC [11]: 0.05 µg/mL (≈ 0.087 µM)
MIC ([12]; HX19, 10^6 CFU/ml, Mueller Hinton agar, 37° C., 16 hours, read-out: MIC): 0.0125 µg/mL (≈ 0.0218 µM)
MIC ([13]; 16 h): 0.05 µg/mL (≈ 0.087 µM)
MIC [14]: 100 µg/mL (≈ 174 µM)
MIC [15, 27]: > 100 µg/mL
MIC ([16]; IFO3445, 16 h): 6.25 µg/mL (≈ 10.9 µM)
MIC ([17]; Burkholderia cepacia, 23, 16 h): 6.25 µg/mL (≈ 10.9 µM)
MIC ([18]; 16 h): 6.25 µg/mL (≈ 10.9 µM)
MIC [19]: 0.05 µg/mL (≈ 0.087 µM)
MIC [20]: 3.12 µg/mL (≈ 5.43 µM)

C=C(O/N=C(\C(=O)N[C@@H]1C(=O)N2C(C(=O)O)=C(C[n+]3ccc(CCS(=O)(=O)[O-])cc3)CS[C@H]12)c1csc(N)n1)C(=O)O [Example 8, 7β-[2-(2-aminothiazol-4-yl)-2-(1-carboxy-1-vinyloxyimino)acetamido]-3-[4-(2-sulfonatoethyl)-1-pyridinio]methyl-3-cephem-4-carboxylic acid (syn-isomer)]
MIC [1, 25]: 12.5 µg/mL (≈ 19.6 µM)
MIC [2]: 0.2 µg/mL (≈ 0.313 µM)
MIC ([3]; 16 h): 0.78 µg/mL (≈ 1.22 µM)
MIC [4]: 0.05 µg/mL (≈ 0.0783 µM)
MIC [5]: 0.05 µg/mL (≈ 0.0783 µM)
MIC [6, 26]: 0.39 µg/mL (≈ 0.611 µM)
MIC [7]: 0.05 µg/mL (≈ 0.0783 µM)
MIC [8]: 0.2 µg/mL (≈ 0.313 µM)
MIC [9, 22]: 0.39 µg/mL (≈ 0.611 µM)
MIC ([10]; PC1602, 16 h): 0.025 µg/mL (≈ 0.0391 µM)
MIC [11]: 0.05 µg/mL (≈ 0.0783 µM)
MIC ([12]; HX19, 16 h): 0.025 µg/mL (≈ 0.0391 µM)
MIC ([13]; 16 h): 0.05 µg/mL (≈ 0.0783 µM)
MIC [14]: 12.5 µg/mL (≈ 19.6 µM)
MIC [15, 27]: > 100 µg/mL
MIC ([16]; IFO3445, 10^6 CFU/ml, Mueller Hinton agar, 37° C., 16 hours, read-out: MIC): 3.12 µg/mL (≈ 4.89 µM)
MIC [17, 23]: 12.5 µg/mL (≈ 19.6 µM)
MIC [18, 24]: 6.25 µg/mL (≈ 9.79 µM)
MIC [19]: 0.025 µg/mL (≈ 0.0391 µM)
MIC [20]: 3.12 µg/mL (≈ 4.89 µM)

— US5084453A, “1-carboxy-1-vinyloxyimino aminothiazole cephalosporin derivatives” (priority 1988, dated 1992)
